Source: ChEMBL document CHEMBL5729418, “Compounds and methods useful in the treatment of a PRMT5-mediated disorder” (2022)

Molecular target: PRMT5/MEP50 complex (Homo sapiens, UniProt O14744)
Assay: Chemiluminescent Assay: A PRMT5 chemiluminescent assay was used to measure the IC50 activity of PRMT5 of the compounds of Examples 1A to 7 above. Biotinylated histone peptides were synthesized and attached to 384-well plates. Compound serial dilutions were performed and added to the assay plate. Histone H4 monomethyl R3 antibody was obtained from Abcam. A master mix for each well was prepared and human PRMT5/MEP50 (expressed in HEK293 cells) diluted in assay buffer to a concentration of 5 ng/μL. The reaction was incubated and slowly rotated for 60 minutes at the point of PRMT5/MEP50 addition. The supernatant from the wells was removed and blocking buffer was added to each well and rotated for 10 minutes. The primary antibody was diluted and added to every well for 60 minutes, before it was removed and the wells washed. The horse raddish peroxidase (HRP)-coupled secondary antibody was diluted and added to each well with an incubation time of 30 minutes. The HRP chemiluminescent substrate was added to every well. The plate was read on a Flourstar Omega BMG Labtech instrument (Ortenberg, Germany) and the analysis of IC50 was performed using the Flourstar Omega BMG Labtech software.
Format: cell-based

PRMT5/MEP50 complex, sequence (O14744 whole entry): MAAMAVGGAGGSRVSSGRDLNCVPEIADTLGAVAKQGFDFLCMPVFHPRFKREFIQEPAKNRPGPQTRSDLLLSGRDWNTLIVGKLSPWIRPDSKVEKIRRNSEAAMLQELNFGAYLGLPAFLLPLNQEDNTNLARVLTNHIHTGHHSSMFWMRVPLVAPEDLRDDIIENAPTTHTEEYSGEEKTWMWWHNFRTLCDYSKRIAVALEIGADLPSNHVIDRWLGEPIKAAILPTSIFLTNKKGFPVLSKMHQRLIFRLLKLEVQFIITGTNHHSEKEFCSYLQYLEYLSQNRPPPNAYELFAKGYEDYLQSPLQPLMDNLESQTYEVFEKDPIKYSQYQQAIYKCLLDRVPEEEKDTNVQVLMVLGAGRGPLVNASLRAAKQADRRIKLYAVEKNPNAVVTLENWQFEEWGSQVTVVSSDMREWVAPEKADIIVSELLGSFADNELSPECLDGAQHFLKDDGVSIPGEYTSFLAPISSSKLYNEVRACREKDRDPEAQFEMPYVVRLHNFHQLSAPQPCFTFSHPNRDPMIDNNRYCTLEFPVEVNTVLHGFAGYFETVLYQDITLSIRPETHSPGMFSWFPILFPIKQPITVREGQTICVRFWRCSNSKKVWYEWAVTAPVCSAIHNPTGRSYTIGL
PRMT5/MEP50 complex, sequence (Q9BQA1 whole entry, further chain): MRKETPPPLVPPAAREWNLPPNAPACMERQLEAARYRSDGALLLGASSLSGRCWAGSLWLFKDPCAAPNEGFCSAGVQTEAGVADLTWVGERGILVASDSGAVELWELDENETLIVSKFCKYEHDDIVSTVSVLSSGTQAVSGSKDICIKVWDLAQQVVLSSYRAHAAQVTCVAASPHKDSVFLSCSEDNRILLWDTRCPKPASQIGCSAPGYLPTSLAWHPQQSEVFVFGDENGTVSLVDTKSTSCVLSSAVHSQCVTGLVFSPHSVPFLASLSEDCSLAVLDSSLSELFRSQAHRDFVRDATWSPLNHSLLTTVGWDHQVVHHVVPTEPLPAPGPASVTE

IC50: 75 nM
Compound: O=C(OCC(O)CN1CCc2ccccc2C1)N1CCCC(c2ccccc2)C1 (stereo unspecified)
